In article PMC8421423, “Cellular model system to dissect the isoform-selectivity of Akt inhibitors” (Nature Communications, 2021):
Several values for one entry are separate records, joined by “and”; a condition that tells them apart may be missing. Equal values may be shown once. Read-outs that look alike come from different tables or passages of the source.

Experiments:
Ba/F3^myr-Akt2 cells = assay: CellTiter-Glo cell viability assay
Akt1 [1] = target: T1, Akt1 (Homo sapiens, UniProt P31749); assay: STK HTRF KinEASE activity-based assay (IC50); settings: for Log ratio IC50 [Akt] / IC50 [Akt], Akt1 / Akt2: biochemical activity based assay, log units
Ba/F3^myr-Akt1 cells = assay: CellTiter-Glo cell viability assay; settings: for Log ratio EC50 [Akt] / EC50 [Akt], Akt1 / Akt2: cell viability assay Ba/F3 myr-Akt cells, log units
Akt3 = Akt3 (Homo sapiens, UniProt Q9Y243); assay: STK HTRF KinEASE activity-based assay (IC50)
parental Ba/F3 cells = assay: CellTiter-Glo cell viability assay; type: cell-based, murine
Akt2 [2] = target: T2, Akt2 (Homo sapiens, UniProt P31751); assay: STK HTRF KinEASE activity-based assay (IC50)
Akt1 [3] = target: T1, Akt1; assay: PhosphoSens continuous fluorometric kinetic enzyme assay
Experimental: (§1) By addition of either 8 nM Akt1, 2 nM Akt2, or 5 nM Akt3 (final concentrations) the reactions were initiated. […] Afterwards the kobs-values were plotted versus the inhibitor concentrations [I] and then fit to the following hyperbolic Eq.

Ba/F3^myr-Akt3 cells = assay: CellTiter-Glo cell viability assay; settings: for Log ratio EC50 [Akt] / EC50 [Akt], Akt3 / Akt2: cell viability assay Ba/F3 myr-Akt cells, log units
Experimental: On day 0, cells were plated into white 384-well cell culture plates (Greiner Bio-One) using a Multidrop reagent dispenser (Thermo Fisher Scientific) at cell numbers that ensure linear and optimal luminescent signal intensity (Ba/F3myr-Akt1: 600 cells/well, Ba/F3myr-Akt2: 800 cells/well, Ba/F3myr-Akt3: 800 cells/well). […] Cell viability was analyzed on day 4 using the CellTiter-Glo Assay (Promega) as per the manufacturer’s instructions. […] All experimental points were measured in duplicates for each plate and were replicated in at least three plates.

Akt2 [4] = target: T2, Akt2; assay: PhosphoSens continuous fluorometric kinetic enzyme assay
Experimental: as §1

[5] = Mus musculus, read-out: CTG BaF3myr-Akt2, Mean, mean of replicates
[6] = read-out: CTG BaF3myr-Akt2, individual determinations, single replicates
[7] = HTRF IC50 Akt1, individual determinations, single replicates
[8] = IC50 Akt1, HTRF, ATP at KM, 1 h preincubation
[9] = Mus musculus, read-out: CTG BaF3myr-Akt1, individual determinations, single replicates
[10] = read-out: CTG BaF3myr-Akt1, individual determinations, single replicates
[11] = HTRF IC50 Akt3, Mean, mean of replicates
[12] = HTRF IC50 Akt3, individual determinations, single replicates
[13] = IC50 Akt3, HTRF, ATP at KM, 1 h preincubation
[14] = Mus musculus, BaF3, CTG, parental BaF3 cell line, read-out: EC50 BaF3
[15] = Mus musculus, BaF3, parental cells, mean of replicates, read-out: CTG BaF3, Mean
[16] = Mus musculus, BaF3, parental cells, single replicates, read-out: CTG BaF3, individual determinations
[17] = parental cells, single replicates, read-out: CTG BaF3, individual determinations
[18] = HTRF IC50 Akt2, Mean, mean of replicates
[19] = HTRF IC50 Akt2, individual determinations, single replicates
[20] = IC50 Akt2, HTRF, ATP at KM, 1 h preincubation
[21] = Mus musculus, read-out: CTG BaF3myr-Akt3, Mean, mean of replicates
[22] = Mus musculus, read-out: CTG BaF3myr-Akt3, individual determinations, single replicates
[23] = read-out: CTG BaF3myr-Akt3, individual determinations, single replicates
[24] = Ki Akt2, Mean, mean of replicates
[25] = Ki Akt2, individual determinations, single replicates
[26] = read-out: kinact /Ki Akt2, Mean, mean of replicates
[27] = read-out: kinact /Ki Akt2, individual determinations, single replicates
[28] = read-out: kinact Akt2, individual determinations, single replicates

T1 sequence (P31749 whole entry): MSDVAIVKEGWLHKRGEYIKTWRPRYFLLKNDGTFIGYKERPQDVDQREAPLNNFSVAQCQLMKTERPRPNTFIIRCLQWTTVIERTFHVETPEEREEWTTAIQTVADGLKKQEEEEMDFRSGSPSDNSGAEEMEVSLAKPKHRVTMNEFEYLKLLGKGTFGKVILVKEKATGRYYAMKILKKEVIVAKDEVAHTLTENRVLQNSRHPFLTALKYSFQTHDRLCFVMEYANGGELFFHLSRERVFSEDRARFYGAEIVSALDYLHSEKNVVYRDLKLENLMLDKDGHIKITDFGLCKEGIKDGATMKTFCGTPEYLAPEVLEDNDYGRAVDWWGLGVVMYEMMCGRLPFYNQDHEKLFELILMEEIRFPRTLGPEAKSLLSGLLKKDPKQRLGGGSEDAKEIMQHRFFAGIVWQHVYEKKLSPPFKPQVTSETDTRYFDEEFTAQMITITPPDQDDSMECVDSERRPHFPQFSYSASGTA
T2 sequence (P31751 whole entry): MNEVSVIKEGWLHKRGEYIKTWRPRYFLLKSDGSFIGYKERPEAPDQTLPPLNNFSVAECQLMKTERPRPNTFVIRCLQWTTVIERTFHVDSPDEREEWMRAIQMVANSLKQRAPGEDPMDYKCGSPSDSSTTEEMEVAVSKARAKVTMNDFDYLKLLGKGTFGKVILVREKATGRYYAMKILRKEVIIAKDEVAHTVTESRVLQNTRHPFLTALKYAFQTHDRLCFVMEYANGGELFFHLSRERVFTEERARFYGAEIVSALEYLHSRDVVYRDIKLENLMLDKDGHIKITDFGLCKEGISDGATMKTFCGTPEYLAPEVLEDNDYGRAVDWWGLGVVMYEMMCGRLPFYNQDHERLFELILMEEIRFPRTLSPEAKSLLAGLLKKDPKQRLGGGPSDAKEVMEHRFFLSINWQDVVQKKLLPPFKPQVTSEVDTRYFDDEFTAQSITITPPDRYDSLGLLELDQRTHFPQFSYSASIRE
Chain of Akt3 (Q9Y243 whole entry): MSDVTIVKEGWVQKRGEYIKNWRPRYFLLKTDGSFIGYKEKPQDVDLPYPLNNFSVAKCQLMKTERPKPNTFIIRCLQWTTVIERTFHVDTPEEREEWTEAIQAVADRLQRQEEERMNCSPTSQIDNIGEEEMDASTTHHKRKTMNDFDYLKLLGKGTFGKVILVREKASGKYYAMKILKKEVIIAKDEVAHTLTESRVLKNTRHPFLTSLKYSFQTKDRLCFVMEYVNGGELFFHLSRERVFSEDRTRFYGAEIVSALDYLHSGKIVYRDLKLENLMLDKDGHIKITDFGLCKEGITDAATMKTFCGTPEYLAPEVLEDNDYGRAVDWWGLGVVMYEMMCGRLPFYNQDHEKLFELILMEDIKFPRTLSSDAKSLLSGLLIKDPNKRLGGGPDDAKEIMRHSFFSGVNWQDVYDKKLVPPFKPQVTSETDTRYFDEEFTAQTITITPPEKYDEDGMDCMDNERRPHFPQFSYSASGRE

## C=CC(=O)Nc1ccc2[nH]c(=O)n(C3CCN(Cc4ccc(-c5ncc(C(=O)Nc6cccnc6)cc5-c5ccccc5)cc4)CC3)c2c1 [compound 22]
Ba/F3^myr-Akt2 cells; [5]
  EC50: 3680 nM
Ba/F3^myr-Akt2 cells; [6]
  EC50: 3180 nM and 5400 nM and 2460 nM
Akt1 [1]; HTRF IC50 Akt1, Mean, mean of replicates
  IC50: 209 nM
Akt1 [1]; [7]
  IC50: 248 nM and 169 nM and 245 nM
Akt1 [1]; [8]
  IC50: 209 ± 40 nM
Akt1 [1]
  Log ratio IC50 [Akt] / IC50 [Akt], Akt1 / Akt2: 0.58
Ba/F3^myr-Akt1 cells; [9]
  EC50: > 30 µM
Ba/F3^myr-Akt1 cells
  Log ratio EC50 [Akt] / EC50 [Akt], Akt1 / Akt2: 0.79
Ba/F3^myr-Akt1 cells; [10]
  EC50: 15.1 µM and 22.5 µM
Akt3; [11]
  IC50: 3050 nM
Akt3; [12]
  IC50: 2240 nM and 3090 nM and 3820 nM
Akt3; [13]
  IC50: 3050 ± 646 nM
Parental Ba/F3 cells; [14]
  EC50: > 30 µM
Parental Ba/F3 cells; [15]
  EC50: > 30 µM
Parental Ba/F3 cells; [16]
  EC50: > 30 µM
Parental Ba/F3 cells; [17]
  EC50: > 30 µM
Akt2 [2]; [18]
  IC50: 54.7 nM
Akt2 [2]; [19]
  IC50: 57.5 nM and 58.8 nM and 47.9 nM
Akt2 [2]; [20]
  IC50: 55 ± 5 nM
Akt1 [3]; Ki Akt1
  Ki: 9 ± 3 nM
Akt1 [3]; Ki Akt1, Mean, mean of replicates
  Ki: 8.74 nM
Akt1 [3]; Ki Akt1, individual determinations, single replicates
  Ki: 12 nM and 5.9 nM and 8.3 nM
Akt1 [3]; read-out: kinact /Ki Akt1
  kinact/KI: 26000 ± 1000 M⁻¹ s⁻¹
Akt1 [3]; read-out: kinact /Ki Akt1, Mean, mean of replicates
  kinact/KI: 26000 M⁻¹ s⁻¹
Akt1 [3]; read-out: kinact /Ki Akt1, individual determinations, single replicates
  kinact/KI: 26000 M⁻¹ s⁻¹
Akt1 [3]; read-out: kinact Akt1
  kinact: 0.000233 s⁻¹
Akt1 [3]; read-out: kinact Akt1, individual determinations, single replicates
  kinact: 0.000317 s⁻¹
Akt1 [3]; single replicates
  kinact Akt1, individual determinations: 0.010 min⁻¹ and 0.013 min⁻¹
Ba/F3^myr-Akt3 cells; [21]
  EC50: 18.8 µM
Ba/F3^myr-Akt3 cells; [22]
  EC50: 18.3 µM
Ba/F3^myr-Akt3 cells
  Log ratio EC50 [Akt] / EC50 [Akt], Akt3 / Akt2: -0.71
Ba/F3^myr-Akt3 cells; [23]
  EC50: 20.7 µM and 18.2 µM
Akt2 [4]; Ki Akt2
  Ki: 11 ± 1 nM
Akt2 [4]; [24]
  Ki: 10.8 nM
Akt2 [4]; [25]
  Ki: 9.4 nM and 10.7 nM and 12.2 nM
Akt2 [4]; read-out: kinact /Ki Akt2
  kinact/KI: 23000 ± 7000 M⁻¹ s⁻¹
Akt2 [4]; [26]
  kinact/KI: 23000 M⁻¹ s⁻¹
Akt2 [4]; [27]
  kinact/KI: 30000 M⁻¹ s⁻¹
Akt2 [4]; read-out: kinact Akt2
  kinact: 0.000233 s⁻¹
Akt2 [4]; [28]
  kinact: 0.000283 s⁻¹
Akt2 [4]; single replicates
  kinact Akt2, individual determinations: 0.013 min⁻¹ and 0.012 min⁻¹

## C=CC(=O)Nc1ccc2[nH]c(=O)n(C3CCN(Cc4ccc(-c5ncc(Cn6ccnc6)cc5-c5ccccc5)cc4)CC3)c2c1 [compound 11]
Ba/F3^myr-Akt2 cells; [5]
  EC50: 2690 nM
Ba/F3^myr-Akt2 cells; Mus musculus, read-out: CTG BaF3myr-Akt2, individual determinations, single replicates
  EC50: 3180 nM
Ba/F3^myr-Akt2 cells; [6]
  EC50: 2510 nM and 2370 nM
Akt1 [1]; [7]
  IC50: 778 nM and 571 nM and 580 nM
Akt1 [1]; [8]
  IC50: 643 ± 95 nM
Akt1 [1]
  Log ratio IC50 [Akt] / IC50 [Akt], Akt1 / Akt2: 0.93
Ba/F3^myr-Akt1 cells; [9]
  EC50: 28.2 µM
Ba/F3^myr-Akt1 cells
  Log ratio EC50 [Akt] / EC50 [Akt], Akt1 / Akt2: 1.03
Ba/F3^myr-Akt1 cells; [10]
  EC50: 27.1 µM and > 30 µM (2×)
Akt3; [11]
  IC50: 1890 nM
Akt3; [12]
  IC50: 1360 nM and 1740 nM and 2570 nM
Akt3; [13]
  IC50: 1890 ± 621 nM
Parental Ba/F3 cells; [14]
  EC50: > 30 µM
Parental Ba/F3 cells; [15]
  EC50: > 30 µM
Parental Ba/F3 cells; [16]
  EC50: > 30 µM
Parental Ba/F3 cells; [17]
  EC50: > 30 µM
Akt2 [2]; [18]
  IC50: 76.1 nM
Akt2 [2]; [19]
  IC50: 78.2 nM and 61.8 nM and 88.3 nM
Akt2 [2]; [20]
  IC50: 76 ± 11 nM
Akt1 [3]; Ki Akt1
  Ki: 9 ± 2 nM
Akt1 [3]; read-out: kinact /Ki Akt1
  kinact/KI: 26000 ± 2000 M⁻¹ s⁻¹
Akt1 [3]; read-out: kinact Akt1
  kinact: 0.0002 s⁻¹
Ba/F3^myr-Akt3 cells; [21]
  EC50: 18.6 µM
Ba/F3^myr-Akt3 cells; [22]
  EC50: 18.3 µM
Ba/F3^myr-Akt3 cells
  Log ratio EC50 [Akt] / EC50 [Akt], Akt3 / Akt2: -0.84
Ba/F3^myr-Akt3 cells; [23]
  EC50: 13.7 µM and 17.7 µM and 24.6 µM
Akt2 [4]; Ki Akt2
  Ki: 11 ± 1 nM
Akt2 [4]; [24]
  Ki: 10.2 nM
Akt2 [4]; [25]
  Ki: 8.9 nM and 11.3 nM and 10.3 nM
Akt2 [4]; read-out: kinact /Ki Akt2
  kinact/KI: 20000 ± 4000 M⁻¹ s⁻¹
Akt2 [4]; [26]
  kinact/KI: 20000 M⁻¹ s⁻¹
Akt2 [4]; [27]
  kinact/KI: 25000 M⁻¹ s⁻¹
Akt2 [4]; read-out: kinact Akt2
  kinact: 0.0002 s⁻¹
Akt2 [4]; [28]
  kinact: 0.000217 s⁻¹
Akt2 [4]; single replicates
  kinact Akt2, individual determinations: 0.013 min⁻¹ and 0.009 min⁻¹
